Data reported in PubChem BioAssay AID743111 (Vanderbilt Specialized Chemistry Center, 2013).
The source made the active and inactive calls.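 How the source made its calls: active means response above 60% of the acetylcholine maximum at the M5 muscarinic receptor, read as positive allosteric modulation; inactive means the rest.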

The molecules below were run against Muscarinic acetylcholine receptor M5 (Rattus norvegicus) (UniProt P08911) (assay: rat M5 receptor positive allosteric modulators, dose response, selectivity assay for M5 PAM project, cell-based, rat ortholog, CHO-K1, calcium flux, ACh EC20 (AID 743111)). Conditions: CHO-K1 rat M5, Fluo-4 calcium flux.
Sequence of Muscarinic acetylcholine receptor M5 (Rattus norvegicus) (P08911 whole entry, looked up): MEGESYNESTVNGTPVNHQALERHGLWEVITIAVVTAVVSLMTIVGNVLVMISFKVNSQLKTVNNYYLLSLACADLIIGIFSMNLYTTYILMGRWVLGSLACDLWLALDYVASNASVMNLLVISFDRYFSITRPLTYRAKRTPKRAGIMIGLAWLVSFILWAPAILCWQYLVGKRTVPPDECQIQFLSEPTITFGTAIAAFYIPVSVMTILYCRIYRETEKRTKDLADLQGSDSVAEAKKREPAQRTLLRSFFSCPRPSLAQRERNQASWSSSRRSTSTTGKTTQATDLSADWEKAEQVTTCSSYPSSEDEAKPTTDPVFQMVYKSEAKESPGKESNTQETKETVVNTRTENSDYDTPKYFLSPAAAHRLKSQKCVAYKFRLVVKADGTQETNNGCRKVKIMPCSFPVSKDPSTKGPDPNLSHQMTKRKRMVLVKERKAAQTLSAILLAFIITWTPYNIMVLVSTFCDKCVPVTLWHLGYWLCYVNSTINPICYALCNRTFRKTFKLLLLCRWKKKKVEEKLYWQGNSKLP

EC50 [nM] | SMILES
640 | CCN(C(=O)C1CCN(S(=O)(=O)c2ccc3[nH]ncc3c2)CC1)[C@H](C)c1ccccc1
710 | CCN(Cc1ccccc1C(F)(F)F)C(=O)C1(F)CCN(S(=O)(=O)c2ccc3[nH]ncc3c2)CC1
300 | CCN(Cc1ccccc1Cl)C(=O)C1CCN(S(=O)(=O)c2ccc3[nH]ncc3c2)CC1
1950 | CCN(Cc1ccccc1)C(=O)C1CCN(S(=O)(=O)c2ccc3cn[nH]c3c2)CC1
540 | CCN(Cc1ccccc1C(F)(F)F)C(=O)C1CCN(S(=O)(=O)c2ccc3[nH]ncc3c2)CC1
1570 | CCN(C(=O)C1CCN(S(=O)(=O)c2ccc(OC)cc2)CC1)[C@H](C)c1ccccc1
860 | CCN(C(=O)C1CCN(S(=O)(=O)c2ccc3cn[nH]c3c2)CC1)[C@H](C)c1ccccc1
1200 | CCN(Cc1ccccc1C(F)(F)F)C(=O)C1CCN(S(=O)(=O)c2ccc3cn[nH]c3c2)CC1
1450 | CCN(Cc1ccccc1)C(=O)C1CCN(S(=O)(=O)c2ccc3[nH]ncc3c2)CC1
320 | CCCN(Cc1ccccc1C(F)(F)F)C(=O)C1CCN(S(=O)(=O)c2ccc3[nH]ncc3c2)CC1
1200 | CCN(C(=O)C1CCN(S(=O)(=O)c2ccc(-n3cccn3)cc2)CC1)[C@H](C)c1ccccc1

Same assay, conditions: CHO-K1 rat M5, Fluo-4 calcium flux, at 30 µM (top of the series)

% ACh max response | SMILES
inactive | CCN(Cc1ccccc1)C(=O)C1CCN(S(=O)(=O)c2ccc(OC)cc2)CC1
inactive | CCN(Cc1ccccc1)C(=O)C1CCN(S(=O)(=O)c2ccc3c(c2)OCCO3)CC1
